Legend:
[1] = tested on: popliteal and sciatic lymph nodes; assay: In vivo pharmacokinetics of fluorescence intensity in draining lymph nodes detected through skin; details: subcutaneous, mouse foot, N = 3
Method: (§1) In Vivo NIR Lymphatic Imaging in Mice. Mice were kept under pathogen-free conditions, exposed to a 12 h light-dark cycle, and received food ad libitum prior to imaging. All procedures were approved by the University of Washington Institutional Animal Care and Use Committee. Mice were anesthetized with 1.5% isoflurane, shaved to remove fur, and placed in a supine position on a 37° C. heat pad underneath an IVIS Lumina II NIR CCD camera (Perkin Elmer, Waltham, Mass.). Precontrast images were taken to confirm the absence of autofluorescence. Forty microliters of ICG-LNPs or free ICG was injected subcutaneously into the top of both rear feet. Immediately following injections, both feet were placed under gentle even pressure. Images were acquired for up to 120 min prior to euthanasia by cervical dislocation under anesthesia, upon which the skin was surgically opened to perform lymph node imaging.

[2] = tested on: lymph nodes and vessels in mice; assay: In vivo NIR lymphatic imaging in mice after subcutaneous foot injection; design: species or system mouse; details: for max NIRF intensity: mean ± SEM (N = 3-4)
Method: as §1

[3] = Light exposure stability of ICG fluorescence; format: physicochemical
Method: (§2) Fluorescence. Fluorescence measurements were performed on a Victor3 V 1420-040 Multilabel Plate Reader (Perkin-Elmer, Waltham, Mass.) with a tungsten-halogen continuous wave lamp (75 W, spectral range of 320-800 nm) and excitation (769±41 nm) and emission (832±37 nm) filters (Semrock, Rochester, N.Y.) using 100μL of sample in flat bottom, untreated 96-well plates (Grenier Bio-one, Monroe, N.C.).
(§3) Light Exposure and Storage Stability. […] For storage stability (FIG. 12), samples were placed in the dark at 4° C. for up to 313 days. […] The time-dependent decay of ICG fluorescence was analyzed on the basis of an exponential decay model with GraphPad Prism version 6.0 (GraphPad Software, San Diego, Calif.). The data were expressed as t½ (half-life) and k (rate constant).

[4] = Storage stability of ICG fluorescence in the dark at 4° C.; format: physicochemical; details: for % ICG fluorescence (8 months): stored in the dark at 4° C. for 8 months, % of initial fluorescence intensity, mean ± SD
Method: as §2, §3

**Q.** With CC1(C)C(/C=C/C=C/C=C/C=C2\N(CCCCS(=O)(=O)O)c3ccc4ccccc4c3C2(C)C)=[N+](CCCCS(=O)(=O)[O-])c2ccc3ccccc3c21 [Free ICG, sodium 2-[7-[3,3-dimethyl-1-(4-sulfonatobutyl)benz[e]indolin-2-ylidene]hepta-1,3,5-trien-1-yl]-3,3-dimethyl-1-(4-sulfonatobutyl)benz] as the compound, how does the AUC0-2 hr ([1]; fluorescence intensity in 1st draining lymph node (popliteal LN) through skin) read?
**A.** 61.65 ± 34.83 a.u.*min

**Q.** What about the Intensitymax ([1]; popliteal LN through skin) of the same compound?
**A.** 0.66 ± 0.42 a.u.

**Q.** And the k ([1]; popliteal LN through skin)?
**A.** 0.19 ± 0.17 h⁻¹

**Q.** What about the “No. of nodes detected” value ([2]; Axillary) of the same compound?
**A.** 2

**Q.** And the “max NIRF intensity” value ([2]; Axillary LN)?
**A.** 0.8 ± 0.1 10^−5 a.u.

**Q.** What about the “No. of nodes detected” value ([2]; Gastric) of the same compound?
**A.** 1-2

**Q.** And the “max NIRF intensity” value ([2]; Gastric LN)?
**A.** 2.5 ± 1.3 10^−5 a.u.

**Q.** And the “No. of nodes detected” value ([2]; Medial iliac)?
**A.** 1-2

**Q.** What about the “max NIRF intensity” value ([2]; Medial iliac LN) of the same compound?
**A.** 4.1 ± 1.6 10^−5 a.u.

**Q.** What about the “max NIRF intensity” value ([2]; Pop afferent vessel) of the same compound?
**A.** 0.6 ± 0.2 10^−5 a.u.

**Q.** What about the “max NIRF intensity” value ([2]; Pop efferent vessel) of the same compound?
**A.** 0.6 ± 0.1 10^−5 a.u.

**Q.** And the “No. of nodes detected” value ([2]; Popliteal (Pop))?
**A.** 1

**Q.** What about the “max NIRF intensity” value ([2]; Popliteal (Pop) LN) of the same compound?
**A.** 4.7 ± 2.2 10^−5 a.u.

**Q.** And the “No. of nodes detected” value ([2]; Sciatic)?
**A.** 0

**Q.** And the “max NIRF intensity” value ([2]; Sciatic LN)?
**A.** 0.6 ± 0.1 10^−5 a.u.

**Q.** What about the “ICG intensity mean of the popliteal lymph node” value ([2]; image collected below the skin, six minutes, 0.5 nmol of ICG subcutaneously in foot) of the same compound?
**A.** 37.0

**Q.** And the “fluorescence intensity, % of the initial value” ([3]; after 6 hours of light exposure, 2.0 μM ICG, overhead fluorescent light)?
**A.** 2.5±0.5%

**Q.** And the half-life at 2 μM ([3]; aqueous solution (free ICG in solution), light exposure, exponential decay model)?
**A.** 2.16 ± 0.3 min

**Q.** And the k ([3]; light exposure, exponential decay model)?
**A.** 19.2 ± 2.7 h⁻¹

**Q.** What about the half-life ([4]; buffer, stored in the dark at 4° C., exponential decay model, (95% CI)) of the same compound?
**A.** 28.6 h

**Q.** And the “% ICG fluorescence (8 months)” value [4]?
**A.** 0.3 +/− 0.2%

**Q.** And the “% ICG fluorescence (8 months)” value ([4]; listed as free ICG)?
**A.** 0.3±0.2%

**Q.** What about the “k (rate constant)” value ([4]; stored in the dark at 4° C., exponential decay model) of the same compound?
**A.** 0.582 day⁻¹

— patent US10238756B2, “Lipid nanoparticles and uses thereof” (Tongli Biomedical Co., Ltd., priority 2015, dated 2019)
